Assay results: publication PMC5399635 (The Journal of Pharmacology and Experimental Therapeutics, 2017)
Entries after “also recorded” stand apart in the source; their conditions may differ.

Assays:
[1] = biological target: human µ-opioid receptor (Homo sapiens, UniProt P35372); experiment: [35S]GTPγS binding, Schild-type antagonism of morphine (CHO-K1 membranes); conditions: versus morphine; pooled 3 experiments
[2] = system: morphine-induced inhibition of gastrointestinal transit; experiment: Gastrointestinal transit model (charcoal meal), antagonism of morphine
[3] = biological target: T1, human δ-opioid receptor (Homo sapiens, UniProt P41143); experiment: [35S]GTPγS functional assay, δ-opioid receptor (CHO membranes); format: biochemical; conditions: agonist mode, relative to DPDPE 10 µM; single experiment
T1 construct: expressed in transfected cells; host or cells: CHO cells

[4] = system: peripheral and central effects of morphine; design: method as in Eldon et al., 2015; conditions: healthy male volunteers administered morphine; ref Eldon et al., 2015; cited from earlier work
[5] = system: Caco2 cells
[6] = Quantitative whole body autoradiography; format: in vivo, rat; conditions: for Concentration of radioactivity, Blood / Concentration of radioactivity, Brain / Concentration of radioactivity, Large intestine wall / Concentration of radioactivity, Liver / Concentration of radioactivity, Spinal cord / Concentration of radioactivity, Fetus (whole) / Concentration of radioactivity, Placenta / Concentration of radioactivity, Uterus: single oral 50 mg/kg
Procedure: Quantitative whole body autoradiography was conducted to track the overall distribution of a single oral dose of radiolabeled naloxegol in adult male and pregnant female rats.
Seven male Lister hooded rats (8–9 weeks old at dosing, body weight 255–290 g each) and 5 time-mated female Sprague-Dawley rats (body weight 347–392 g each) were supplied by Charles River UK Limited (Margate, Kent, UK). All animals were acclimated to the experimental unit before the study (males, 6 days; females, 13 days).
Animals were fasted overnight before dose administration. […] Male rats were administered a mean (±S.D.) of 5.62 (±0.06) MBq/kg; female rats received a mean of 5.60 (±0.03) MBq/kg.
One male rat was humanely euthanized by CO2 narcosis at 0.5, 1, 4, 24, 48, 168, and 504 hours postdose, respectively. One time-mated female rat was humanely euthanized at 0.5, 1, 4, 24, and 48 hours postdose, respectively.
After removal of the whiskers, legs, and tails, the carcasses were frozen by immersion in a mixture of solid CO2 in hexane for approximately 30 minutes and then embedded in a block of carboxymethylcellulose, which was frozen in the same way. After equilibration at approximately –20°C, sagittal sections (30 μm thick) were taken using a whole body cryomicrotome (Leica Biosystems GmbH, Nussloch, Germany). The sections were freeze dried in a chamber of the cryomicrotome before storage at ambient temperature. Carcasses were stored frozen (–20°C) until analysis. After analysis, samples were returned to storage at –20°C. Freeze-dried whole body sections were stored at room temperature.
The radioactivity present in various organs and tissues in whole body sections was determined by QWBA. After exposure, the imaging plates were scanned using a phosphorimage analyzer. Tissues and organs of interest were quantified using AIDA image analysis software (version 4.06; Raytest Isotopenmeßgeräte GmbH, Straubenhardt, Germany). For analysis, representative whole body sections were placed into close contact with phosphor screens and left for a 7-day period. A set of external standards were also exposed on each phosphor screen. These standards were prepared from blood spiked with a serial dilution of a ^14C-labeled reference solution, which was dispensed into holes drilled into a block of carboxymethylcellulose, frozen, and then sectioned in the same way as the animal samples.
After the phosphor screen was scanned, an image of the radioactivity in the sample was stored digitally. For quantitative analysis, six background areas were defined on each stored phosphor screen image. The software automatically calculated the mean background and subsequently subtracted this from all standards and tissues analyzed. A regression coefficient was derived by comparing the response of each standard with the nominal disintegrations per minute per gram over the range of radioactive concentration used and forcing the response curve through the origin. The concentrations of the standards used were in the range of 0.09 to 826.31 μg Eq/g. The response curve was linear over these concentrations and was assumed to be linear to the limit of reliable determination.
Organs or tissues from representative autoradiograms were identified and integrated. The back-calculated tissue concentrations (μg Eq/g) were then determined by the software. The limit of reliable measurement for each storage screen was calculated from the assessment of the mean background of the plate and taken to be three times the S.D. of the mean above background. At the specific activity used in this study, the limit of reliable measurement was in the range of 0.06 to 0.16 μg Eq/g.

[7] = in vitro; conditions: human; for Papp A→B at 2 h, 10 μM: Caco-2, pH 7.4, Papp A→B; for Papp B→A at 2 h, 10 μM: Caco-2, pH 7.4, Papp B→A
[8] = system: morphine-induced antinociception; experiment: Hot plate model of nociception, antagonism of morphine; conditions: Rattus norvegicus, po, read-out: ED50, antagonism of morphine analgesia
[9] = no P-gp inhibitor, mean of 3 experiments

human µ-opioid receptor, sequence (P35372 whole entry): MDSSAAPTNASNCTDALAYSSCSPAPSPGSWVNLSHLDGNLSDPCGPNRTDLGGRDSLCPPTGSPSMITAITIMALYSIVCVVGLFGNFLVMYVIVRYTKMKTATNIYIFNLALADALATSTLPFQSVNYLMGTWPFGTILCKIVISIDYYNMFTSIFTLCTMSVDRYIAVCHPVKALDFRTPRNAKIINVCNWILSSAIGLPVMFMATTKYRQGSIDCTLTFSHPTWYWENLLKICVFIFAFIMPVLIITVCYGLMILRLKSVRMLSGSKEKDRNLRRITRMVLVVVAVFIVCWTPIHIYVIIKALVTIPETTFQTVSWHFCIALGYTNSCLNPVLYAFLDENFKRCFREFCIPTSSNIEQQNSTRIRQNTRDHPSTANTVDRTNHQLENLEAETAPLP
T1 sequence (P41143 whole entry): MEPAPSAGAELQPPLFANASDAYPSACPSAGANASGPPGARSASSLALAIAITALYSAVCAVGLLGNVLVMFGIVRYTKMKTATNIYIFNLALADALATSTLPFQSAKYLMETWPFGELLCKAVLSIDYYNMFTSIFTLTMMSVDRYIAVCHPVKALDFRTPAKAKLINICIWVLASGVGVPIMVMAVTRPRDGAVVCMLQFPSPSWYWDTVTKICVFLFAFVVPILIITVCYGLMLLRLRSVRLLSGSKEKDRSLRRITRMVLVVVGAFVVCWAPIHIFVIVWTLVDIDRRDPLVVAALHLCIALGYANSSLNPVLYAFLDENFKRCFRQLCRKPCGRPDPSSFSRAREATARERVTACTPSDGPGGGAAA

## C=CCN1CC[C@]23c4c5ccc(O)c4O[C@H]2[C@@H](OCCOCCOCCOCCOCCOCCOCCOC)CC[C@@]3(O)[C@H]1C5 [Naloxegol, naloxegol]
[1]
  Schild slope: –1.03
[2]; GI transit assay, rat
  oral dose that completely reversed the effect of morphine: 90 mg/kg
[2]; Rattus norvegicus, read-out: ED50, antagonism of morphine in GI transit
  ED50: 23.1 mg/kg
[2]; comparison of ED50 values
  times less potent than naloxone: approximately 33 fold
[2]; rat, GI transit versus hot plate
  separation in PNS versus CNS effect: twofold
[3]
  agonism: no agonism
[4]
  effect on morphine-induced miosis: no change in morphine-induced miosis
  effect on orocecal transit time: reduced orocecal transit time
[5]
  efflux transporter substrate status: substrate for at least one apically directed efflux transporter, likely the P-gp transporter; also recorded: substrate for the P-glycoprotein transporter
[6]; male rat, 0.5 h
  Concentration of radioactivity, Blood: 3.03 μg Eq/g
  Concentration of radioactivity, Brain: BLQ
  Concentration of radioactivity, Large intestine wall: 8.83 μg Eq/g
  Concentration of radioactivity, Liver: 43.40 μg Eq/g
  Concentration of radioactivity, Spinal cord: 0.06 μg Eq/g
[6]; male rat, 1 h
  Concentration of radioactivity, Blood: 4.11 μg Eq/g
  Concentration of radioactivity, Brain: 0.21 μg Eq/g
  Concentration of radioactivity, Large intestine wall: 14.09 μg Eq/g
  Concentration of radioactivity, Liver: 66.49 μg Eq/g
  Concentration of radioactivity, Spinal cord: 0.15 μg Eq/g
[6]; male rat, 4 h
  Concentration of radioactivity, Blood: 2.14 μg Eq/g
  Concentration of radioactivity, Brain: 0.14 μg Eq/g
  Concentration of radioactivity, Large intestine wall: 12.09 μg Eq/g
  Concentration of radioactivity, Liver: 58.74 μg Eq/g
[6]; male rat, 24 h
  Concentration of radioactivity, Liver: 4.61 μg Eq/g
[6]; male rat, 48 h
  Concentration of radioactivity, Liver: 7.74 μg Eq/g
[6]; male rat, 168 h
  Concentration of radioactivity, Liver: 1.03 μg Eq/g
[6]; pregnant female rat, 0.5 h
  Concentration of radioactivity, Blood: 12.38 μg Eq/g
  Concentration of radioactivity, Brain: 0.34 μg Eq/g
  Concentration of radioactivity, Fetus (whole): 3.10 μg Eq/g
  Concentration of radioactivity, Large intestine wall: 23.61 μg Eq/g
  Concentration of radioactivity, Liver: 68.67 μg Eq/g
  Concentration of radioactivity, Placenta: 21.09 μg Eq/g
  Concentration of radioactivity, Spinal cord: 0.24 μg Eq/g
  Concentration of radioactivity, Uterus: 31.19 μg Eq/g
[6]; pregnant female rat, 1 h
  Concentration of radioactivity, Blood: 7.80 μg Eq/g
  Concentration of radioactivity, Brain: 0.15 μg Eq/g
  Concentration of radioactivity, Fetus (whole): 1.99 μg Eq/g
  Concentration of radioactivity, Large intestine wall: 25.20 μg Eq/g
  Concentration of radioactivity, Liver: 56.01 μg Eq/g
  Concentration of radioactivity, Placenta: 12.89 μg Eq/g
  Concentration of radioactivity, Spinal cord: 0.10 μg Eq/g
  Concentration of radioactivity, Uterus: 82.21 μg Eq/g
[6]; pregnant female rat, 4 h
  Concentration of radioactivity, Blood: 6.92 μg Eq/g
  Concentration of radioactivity, Brain: 0.28 μg Eq/g
  Concentration of radioactivity, Fetus (whole): 2.23 μg Eq/g
  Concentration of radioactivity, Large intestine wall: 37.45 μg Eq/g
  Concentration of radioactivity, Liver: 58.78 μg Eq/g
  Concentration of radioactivity, Placenta: 14.78 μg Eq/g
  Concentration of radioactivity, Spinal cord: 0.12 μg Eq/g
  Concentration of radioactivity, Uterus: 185.03 μg Eq/g
[6]; pregnant female rat, 24 h
  Concentration of radioactivity, Fetus (whole): 0.17 μg Eq/g
  Concentration of radioactivity, Liver: 4.42 μg Eq/g
  Concentration of radioactivity, Placenta: 0.16 μg Eq/g
  Concentration of radioactivity, Uterus: 19.04 μg Eq/g
[6]; pregnant female rat, 48 h
  Concentration of radioactivity, Fetus (whole): BLQ
  Concentration of radioactivity, Liver: 2.68 μg Eq/g
  Concentration of radioactivity, Placenta: BLQ
  Concentration of radioactivity, Uterus: 4.00 μg Eq/g
[6]; rat, naloxegol-derived radioactivity
  time to elimination of radioactivity from most tissues: ≤ 24 h
[7]; Cyclosporin A
  Papp A→B at 2 h, 10 μM: 1.8 ×10⁻⁶ cm/s
  Papp B→A at 2 h, 10 μM: 1.8 ×10⁻⁶ cm/s
[7]; Elacridar, 0.5 μM
  Papp A→B at 2 h, 10 μM: 2.3 ×10⁻⁶ cm/s
  Papp B→A at 2 h, 10 μM: 2.5 ×10⁻⁶ cm/s
[7]; Verapamil, 100 μM
  Papp A→B at 2 h, 10 μM: 1.3 ×10⁻⁶ cm/s
  Papp B→A at 2 h, 10 μM: 1.7 ×10⁻⁶ cm/s
[7]; [9]
  Papp A→B at 2 h, 10 μM: 0.7 ×10⁻⁶ cm/s
  Papp B→A at 2 h, 10 μM: 8.4 ×10⁻⁶ cm/s
[8]
  ED50: 55.4 mg/kg
